Reference: the supplement of paper PMC10307832

Experiments:
Assay in all cases: relative viability (nuclei count vs DMSO), 5 days (fraction); higher = more cells survive
NCI-H650 = tested on: NCI-H650
Summary of the method: (§1)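 For relative viability, nuclei counts in treated wells were divided by those in vehicle wells. Lung cancer cell lines had been pin-tool dosed in 1536-well plates the day after seeding and cultured for 5 days, then fixed and stained in one step (final 0.05% Triton X-100, 1% formaldehyde, 1 ug/ml Hoechst) and imaged at 4×. Doses were one drug alone or a fixed anchor-drug dose plus five library-drug doses (not always all listed) in √10 steps, and values are duplicate-plate medians.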

NCI-H1755 = tested on: NCI-H1755
Summary of the method: as §1

LXF-289 = tested on: LXF-289
Summary of the method: as §1

NCI-H1395 = tested on: NCI-H1395
Summary of the method: as §1

NCI-H1944 = tested on: NCI-H1944
Summary of the method: as §1

A-427 = tested on: A-427
Summary of the method: as §1

LU99A = tested on: LU99A
Summary of the method: as §1

NCI-H2126 = tested on: NCI-H2126
Summary of the method: as §1

NCI-H460 = tested on: NCI-H460
Summary of the method: as §1

LOU-NH91 = tested on: LOU-NH91
Summary of the method: as §1

NCI-H1666 = tested on: NCI-H1666
Summary of the method: as §1

NCI-H322M = tested on: NCI-H322M
Summary of the method: as §1

PC-3 [JPC-3] = tested on: PC-3 [JPC-3]
Summary of the method: as §1

SK-LU-1 = tested on: SK-LU-1
Summary of the method: as §1

NCI-H2170 = tested on: NCI-H2170
Summary of the method: as §1

NCI-H1915 = tested on: NCI-H1915
Summary of the method: as §1

HARA = tested on: HARA
Summary of the method: as §1

NCI-H23 = tested on: NCI-H23
Summary of the method: as §1

NCI-H441 = tested on: NCI-H441
Summary of the method: as §1

NCI-H1793 = tested on: NCI-H1793
Summary of the method: as §1

NCI-H2023 = tested on: NCI-H2023
Summary of the method: as §1

BEN = tested on: BEN
Summary of the method: as §1

LCLC-97TM1 = tested on: LCLC-97TM1
Summary of the method: as §1

O=c1[nH]c2ccccc2n1C1CCN(CCCC(c2ccc(F)cc2)c2ccc(F)cc2)CC1 [Pimozide] + COc1cccc2cc(-c3nc([C@H]4CC[C@H](C(=O)O)CC4)n4ncnc(N)c34)[nH]c12 [OSI-027] (partner 0.5 µM)
relative viability (NCI-H650; first compound 0.08 µM): 0.536 | relative viability (NCI-H650; first compound 0.253 µM): 0.555 | relative viability (NCI-H650; first compound 0.8 µM): 0.405 | relative viability (NCI-H650; first compound 2.53 µM): 0.537 | relative viability (NCI-H650; first compound 8 µM): 0.606 | relative viability (NCI-H1755; first compound 0.08 µM): 0.678 | relative viability (NCI-H1755; first compound 0.253 µM): 0.687 | relative viability (NCI-H1755; first compound 0.8 µM): 0.678 | relative viability (NCI-H1755; first compound 2.53 µM): 0.597 | relative viability (NCI-H1755; first compound 8 µM): 0.51 | relative viability (LXF-289; first compound 0.08 µM): 0.693 | relative viability (LXF-289; first compound 0.253 µM): 0.786 | relative viability (LXF-289; first compound 0.8 µM): 0.773 | relative viability (LXF-289; first compound 2.53 µM): 0.811 | relative viability (LXF-289; first compound 8 µM): 0.716 | relative viability (NCI-H1395; first compound 0.08 µM): 0.642 | relative viability (NCI-H1395; first compound 0.253 µM): 0.611 | relative viability (NCI-H1395; first compound 0.8 µM): 0.565 | relative viability (NCI-H1395; first compound 2.53 µM): 0.629 | relative viability (NCI-H1395; first compound 8 µM): 0.557 | relative viability (NCI-H1944; first compound 0.08 µM): 0.347 | relative viability (NCI-H1944; first compound 0.253 µM): 0.417 | relative viability (NCI-H1944; first compound 0.8 µM): 0.33 | relative viability (NCI-H1944; first compound 2.53 µM): 0.389 | relative viability (NCI-H1944; first compound 8 µM): 0.37 | relative viability (A-427; first compound 0.08 µM): 0.433 | relative viability (A-427; first compound 0.253 µM): 0.468 | relative viability (A-427; first compound 0.8 µM): 0.414 | relative viability (A-427; first compound 2.53 µM): 0.419 | relative viability (A-427; first compound 8 µM): 0.406 | relative viability (LU99A; first compound 0.08 µM): 0.277 | relative viability (LU99A; first compound 0.253 µM): 0.277 | relative viability (LU99A; first compound 0.8 µM): 0.228 | relative viability (LU99A; first compound 2.53 µM): 0.302 | relative viability (LU99A; first compound 8 µM): 0.291 | relative viability (NCI-H2126; first compound 0.08 µM): 0.711 | relative viability (NCI-H2126; first compound 0.253 µM): 0.63 | relative viability (NCI-H2126; first compound 0.8 µM): 0.755 | relative viability (NCI-H2126; first compound 2.53 µM): 0.712 | relative viability (NCI-H2126; first compound 8 µM): 0.744 | relative viability (NCI-H460; first compound 0.08 µM): 0.755 | relative viability (NCI-H460; first compound 0.253 µM): 0.66 | relative viability (NCI-H460; first compound 0.8 µM): 0.708 | relative viability (NCI-H460; first compound 2.53 µM): 0.518 | relative viability (NCI-H460; first compound 8 µM): 0.484 | relative viability (LOU-NH91; first compound 0.08 µM): 0.442 | relative viability (LOU-NH91; first compound 0.253 µM): 0.699 | relative viability (LOU-NH91; first compound 0.8 µM): 0.638 | relative viability (LOU-NH91; first compound 2.53 µM): 0.729 | relative viability (LOU-NH91; first compound 8 µM): 0.708 | relative viability (NCI-H1666; first compound 0.08 µM): 0.874 | relative viability (NCI-H1666; first compound 0.253 µM): 0.832 | relative viability (NCI-H1666; first compound 0.8 µM): 0.772 | relative viability (NCI-H1666; first compound 2.53 µM): 0.699 | relative viability (NCI-H1666; first compound 8 µM): 0.808 | relative viability (NCI-H322M; first compound 0.253 µM): 0.525 | relative viability (NCI-H322M; first compound 0.8 µM): 0.508 | relative viability (NCI-H322M; first compound 2.53 µM): 0.545 | relative viability (NCI-H322M; first compound 8 µM): 0.572 | relative viability (PC-3 [JPC-3]; first compound 0.08 µM): 0.338 | relative viability (PC-3 [JPC-3]; first compound 0.253 µM): 0.739 | relative viability (PC-3 [JPC-3]; first compound 0.8 µM): 0.688 | relative viability (PC-3 [JPC-3]; first compound 2.53 µM): 0.746 | relative viability (PC-3 [JPC-3]; first compound 8 µM): 0.685 | relative viability (SK-LU-1; first compound 0.08 µM): 0.417 | relative viability (SK-LU-1; first compound 0.253 µM): 0.331 | relative viability (SK-LU-1; first compound 0.8 µM): 0.285 | relative viability (SK-LU-1; first compound 2.53 µM): 0.231 | relative viability (SK-LU-1; first compound 8 µM): 0.201 | relative viability (NCI-H2170; first compound 0.08 µM): 0.617 | relative viability (NCI-H2170; first compound 0.253 µM): 0.628 | relative viability (NCI-H2170; first compound 0.8 µM): 0.681 | relative viability (NCI-H2170; first compound 2.53 µM): 0.692 | relative viability (NCI-H2170; first compound 8 µM): 0.551 | relative viability (NCI-H1915; first compound 0.08 µM): 0.6 | relative viability (NCI-H1915; first compound 0.253 µM): 0.575 | relative viability (NCI-H1915; first compound 0.8 µM): 0.384 | relative viability (NCI-H1915; first compound 2.53 µM): 0.581 | relative viability (NCI-H1915; first compound 8 µM): 0.478 | relative viability (HARA; first compound 0.253 µM): 0.518 | relative viability (HARA; first compound 0.8 µM): 0.196 | relative viability (HARA; first compound 2.53 µM): 0.384 | relative viability (HARA; first compound 8 µM): 0.264 | relative viability (NCI-H23; first compound 0.08 µM): 0.696 | relative viability (NCI-H23; first compound 0.253 µM): 0.603 | relative viability (NCI-H23; first compound 0.8 µM): 0.379 | relative viability (NCI-H23; first compound 2.53 µM): 0.443 | relative viability (NCI-H23; first compound 8 µM): 0.477 | relative viability (NCI-H441; first compound 0.08 µM): 0.608 | relative viability (NCI-H441; first compound 0.253 µM): 0.577 | relative viability (NCI-H441; first compound 0.8 µM): 0.478 | relative viability (NCI-H441; first compound 2.53 µM): 0.436 | relative viability (NCI-H441; first compound 8 µM): 0.406 | relative viability (NCI-H1793; first compound 0.253 µM): 0.239 | relative viability (NCI-H1793; first compound 0.8 µM): 0.205 | relative viability (NCI-H1793; first compound 2.53 µM): 0.245 | relative viability (NCI-H1793; first compound 8 µM): 0.115 | relative viability (NCI-H2023; first compound 0.08 µM): 0.418 | relative viability (NCI-H2023; first compound 0.253 µM): 0.465 | relative viability (NCI-H2023; first compound 0.8 µM): 0.413 | relative viability (NCI-H2023; first compound 2.53 µM): 0.307 | relative viability (NCI-H2023; first compound 8 µM): 0.231 | relative viability (BEN; first compound 0.08 µM): 0.275 | relative viability (BEN; first compound 0.253 µM): 0.293 | relative viability (BEN; first compound 0.8 µM): 0.307 | relative viability (BEN; first compound 2.53 µM): 0.321 | relative viability (BEN; first compound 8 µM): 0.304 | relative viability (LCLC-97TM1; first compound 0.08 µM): 0.488 | relative viability (LCLC-97TM1; first compound 0.253 µM): 0.363 | relative viability (LCLC-97TM1; first compound 0.8 µM): 0.447 | relative viability (LCLC-97TM1; first compound 2.53 µM): 0.422 | relative viability (LCLC-97TM1; first compound 8 µM): 0.278
